Values after ≈ are worked out from the molar mass of the structure shown.
Assays:
E. coli ATCC 25922 = assay: Broth microdilution MIC, E. coli ATCC 25922; format: cell-based; settings: Escherichia coli, ATCC25922; E. coli ATCC 25922, broth microdilution; read-out: MIC E. coli 25922
Procedure, shortened: (§1)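 Following CLSI guidance, growth inhibition is measured in Mueller-Hinton broth with divalent cations. Inoculum 5×10^5 CFU/mL; incubation 16-20 hours, 37° C; endpoint is visual absence of growth.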

K. pneumoniae SI-117 = assay: microbe, parasite or virus in culture; format: cell-based; settings: Klebsiella pneumoniae, SI117, read-out: MIC K. pneumoniae SI-117
Procedure, shortened: as §1

E. coli 901C = assay: microbe, parasite or virus in culture; format: cell-based; settings: Escherichia coli; hyper-permeable E. coli 901C, broth microdilution; read-out: MIC E. coli 901C
Procedure, shortened: as §1

E. coli AG100A = assay: microbe, parasite or virus in culture; format: cell-based; settings: Escherichia coli, read-out: MIC E. coli AG100A
Procedure, shortened: as §1

K. pneumoniae UMM = assay: microbe, parasite or virus in culture; format: cell-based; settings: Klebsiella pneumoniae; K. pneumoniae UMM producing SHV-5 and KPC-2; read-out: MIC K. pneumoniae UMM
Procedure, shortened: as §1

E. coli D22 = assay: microbe, parasite or virus in culture; format: cell-based; settings: Escherichia coli; hyper-permeable E. coli D22, broth microdilution; read-out: MIC E. coli D22
Procedure, shortened: as §1

N. gonorrhoeae WHO F = assay: Liquid broth MIC, N. gonorrhoeae WHO F; format: cell-based; settings: Neisseria gonorrhoeae; N. gonorrhoeae WHO F, liquid broth; read-out: Minimum Inhibitory Concentration, N. gonorrhoeae WHO F
Procedure, shortened: (§2)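 Colonies sub-cultured 24 h earlier on supplemented GC agar are suspended in broth, adjusted by optical density at 600 nm and added to 2-fold serial compound dilutions at 5×10^5 CFU/mL. Plates incubate 40-42 hours at 36° C with 5% CO2 before visual MIC reading.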

E. coli AG100 = assay: Broth microdilution MIC, E. coli AG100 (wild-type parent); format: cell-based; settings: Escherichia coli; wild-type parent E. coli AG100, broth microdilution; read-out: MIC E. coli AG100
Procedure, shortened: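 Broth microdilution in cation-supplemented Mueller-Hinton broth, 2-fold serial compound dilutions, inoculum 5×10^5 CFU/mL from 3-5 h log culture.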

N. gonorrhoeae FA19 = assay: Liquid broth MIC, N. gonorrhoeae FA19; format: cell-based; settings: Neisseria gonorrhoeae; N. gonorrhoeae FA19, liquid broth; read-out: Minimum Inhibitory Concentration, N. gonorrhoeae FA19
Procedure, shortened: as §2

N. gonorrhoeae FA1090 = assay: Liquid broth MIC, N. gonorrhoeae FA1090; format: cell-based; settings: Neisseria gonorrhoeae; N. gonorrhoeae FA1090, liquid broth; read-out: Minimum Inhibitory Concentration, N. gonorrhoeae FA1090
Procedure, shortened: as §2

K. pneumoniae 848844 = assay: microbe, parasite or virus in culture; format: cell-based, Klebsiella pneumoniae; settings: Klebsiella pneumoniae; K. pneumoniae 848844 producing SHV-11 and KPC-2; read-out: MIC K. pneumoniae 848844
Procedure, shortened: as §1

[1] = tested on: N. gonorrhoeae ATCC 49226; assay: Liquid broth MIC, N. gonorrhoeae ATCC 49226; format: cell-based; settings: Neisseria gonorrhoeae, ATCC49226; N. gonorrhoeae ATCC 49226, liquid broth; read-out: Minimum Inhibitory Concentration, N. gonorrhoeae ATCC 49226
Procedure, shortened: as §2

| Structure (SMILES) | MIC (E. coli ATCC 25922) | MIC (K. pneumoniae SI-117) | MIC (E. coli 901C) | MIC (E. coli AG100A) | MIC (K. pneumoniae UMM) | MIC (E. coli D22) | MIC (N. gonorrhoeae WHO F) | MIC (E. coli AG100) | MIC (N. gonorrhoeae FA19) | MIC (N. gonorrhoeae FA1090) | MIC (K. pneumoniae 848844) | MIC [1] |
| --- | --- | --- | --- | --- | --- | --- | --- | --- | --- | --- | --- | --- |
| CCN1CCN(C(=O)NC(C(=O)N[C@H]2Cc3ccc(F)c(C(=O)O)c3OB2O)c2ccc(O)c(O)c2F)C(=O)C1=O (stereo partly drawn) [Example 149, (3R)-3-(2-(4-ethyl-2,3-dioxopiperazine-1-carboxamido)-2-(2-fluoro-3,4-dihydroxyphenyl)acetamido)-7-fluoro-2-hydroxy-3,4-dihydro-2H-benzo[e][1,2]oxaborinine-8-carboxylic acid] | 8 to 16 µg/mL | 2 to 4 µg/mL | 0.5 to 1 µg/mL | 0.5 to 1 µg/mL | 2 to 4 µg/mL | 2 to 4 µg/mL | < 0.125 µg/mL | 2 to 4 µg/mL | 1 to 2 µg/mL (≈ 1.74 to 3.47 µM) | 0.25 to 0.5 µg/mL (≈ 0.434 to 0.868 µM) | 2 to 4 µg/mL | 1 to 2 µg/mL (≈ 1.74 to 3.47 µM) |
| CCN1CCN(C(=O)NC(C(=O)N[C@H]2Cc3cccc(C(=O)O)c3OB2O)c2ncc(O)cc2Cl)C(=O)C1=O (stereo partly drawn) [Example 150, (3R)-3-(2-(4-ethyl-2,3-dioxopiperazine-1-carboxamido)-2-(3-chloro-5-hydroxypyridin-2-yl)acetamido)-2-hydroxy-3,4-dihydro-2H-benzo[e][1,2]oxaborinine-8-carboxylic acid] | 32 to 64 µg/mL | > 128 µg/mL | 0.5 to 1 µg/mL | 2 to 4 µg/mL | 32 to 64 µg/mL | 2 to 4 µg/mL | 0.25 to 0.5 µg/mL (≈ 0.447 to 0.893 µM) | 32 to 64 µg/mL | 4 to 8 µg/mL (≈ 7.15 to 14.3 µM) | 0.25 to 0.5 µg/mL (≈ 0.447 to 0.893 µM) | > 128 µg/mL | 4 to 8 µg/mL (≈ 7.15 to 14.3 µM) |
| CCN1CCN(C(=O)NC(C(=O)N[C@H]2Cc3ccc(F)c(C(=O)O)c3OB2O)c2ncc(O)cc2Cl)C(=O)C1=O (stereo partly drawn) [Example 151, (3R)-3-(2-(3-chloro-5-hydroxypyridin-2-yl)-2-(4-ethyl-2,3-dioxopiperazine-1-carboxamido)acetamido)-7-fluoro-2-hydroxy-3,4-dihydro-2H-benzo[e][1,2]oxaborinine-8-carboxylic acid] | > 128 µg/mL | 32 to 64 µg/mL | 0.5 to 1 µg/mL | 8 to 16 µg/mL | 32 to 64 µg/mL | 8 to 16 µg/mL | < 0.125 µg/mL | 32 to 64 µg/mL | 4 to 8 µg/mL (≈ 6.92 to 13.8 µM) | 0.25 to 0.5 µg/mL (≈ 0.433 to 0.865 µM) | > 128 µg/mL | 1 to 2 µg/mL (≈ 1.73 to 3.46 µM) |
| CCN1CCN(C(=O)N[C@@H](C(=O)N[C@H]2Cc3ccc(F)c(C(=O)O)c3OB2O)c2ccc(O)c(F)c2)C(=O)C1=O [Example 161, (R)-3-((R)-2-(4-ethyl-2,3-dioxopiperazine-1-carboxamido)-2-(3-fluoro-4-hydroxyphenyl)acetamido)-7-fluoro-2-hydroxy-3,4-dihydro-2H-benzo[e][1,2]oxaborinine-8-carboxylic acid] | > 128 µg/mL | > 128 µg/mL | 0.5 to 1 µg/mL | 32 to 64 µg/mL | 32 to 64 µg/mL | 2 to 4 µg/mL | < 0.125 µg/mL | > 128 µg/mL | 1 to 2 µg/mL (≈ 1.78 to 3.57 µM) | < 0.125 µg/mL | > 128 µg/mL | 1 to 2 µg/mL (≈ 1.78 to 3.57 µM) |
| CCN1CCN(C(=O)N[C@@H](C(=O)N[C@H]2Cc3cccc(C(=O)O)c3OB2O)c2ncc(O)cc2F)C(=O)C1=O [Example 177, (R)-3-((R)-2-(4-ethyl-2,3-dioxopiperazine-1-carboxamido)-2-(3-fluoro-5-hydroxypyridin-2-yl)acetamido)-2-hydroxy-3,4-dihydro-2H-benzo[e][1,2]oxaborinine-8-carboxylic acid] | 8 to 16 µg/mL | 32 to 64 µg/mL | < 0.25 µg/mL | 0.5 to 1 µg/mL | 8 to 16 µg/mL | 0.5 to 1 µg/mL | < 0.125 µg/mL | 8 to 16 µg/mL | 4 to 8 µg/mL (≈ 7.36 to 14.7 µM) | < 0.125 µg/mL | 32 to 64 µg/mL | 4 to 8 µg/mL (≈ 7.36 to 14.7 µM) |
| CCN1CCN(C(=O)NC(C(=O)N[C@H]2Cc3ccc(F)c(C(=O)O)c3OB2O)c2ccc(S(N)(=O)=O)cc2)C(=O)C1=O (stereo partly drawn) [Example 181, (3R)-3-(2-(4-ethyl-2,3-dioxopiperazine-1-carboxamido)-2-(4-sulfamoylphenyl)acetamido)-7-fluoro-2-hydroxy-3,4-dihydro-2H-benzo[e][1,2]oxaborinine-8-carboxylic acid] | > 128 µg/mL | > 128 µg/mL | 0.5 to 1 µg/mL | 32 to 64 µg/mL | 32 to 64 µg/mL | 8 to 16 µg/mL | 0.25 to 0.5 µg/mL (≈ 0.413 to 0.826 µM) | > 128 µg/mL | 4 to 8 µg/mL (≈ 6.61 to 13.2 µM) | 1 to 2 µg/mL (≈ 1.65 to 3.3 µM) | 32 to 64 µg/mL | 4 to 8 µg/mL (≈ 6.61 to 13.2 µM) |
| NS(=O)(=O)c1ccc(C(NC(=O)N2CCN(CCF)C(=O)C2=O)C(=O)N[C@H]2Cc3ccc(F)c(C(=O)O)c3OB2O)cc1 (stereo partly drawn) [Example 182, (3R)-7-fluoro-3-(2-(4-(2-fluoroethyl)-2,3-dioxopiperazine-1-carboxamido)-2-(4-sulfamoylphenyl)acetamido)-2-hydroxy-3,4-dihydro-2H-benzo[e][1,2]oxaborinine-8-carboxylic acid] | > 128 µg/mL | > 128 µg/mL | 0.5 to 1 µg/mL | 32 to 64 µg/mL | 32 to 64 µg/mL | 2 to 4 µg/mL | 1 to 2 µg/mL (≈ 1.6 to 3.21 µM) | > 128 µg/mL | 4 to 8 µg/mL (≈ 6.42 to 12.8 µM) | 1 to 2 µg/mL (≈ 1.6 to 3.21 µM) | > 128 µg/mL | 4 to 8 µg/mL (≈ 6.42 to 12.8 µM) |
| O=C(O)c1c(F)ccc2c1OB(O)[C@@H](NC(=O)C(NC(=O)N1CCN(CCF)C(=O)C1=O)c1ncc(O)cc1F)C2 (stereo partly drawn) [Example 183, (3R)-7-fluoro-3-(2-(3-fluoro-5-hydroxypyridin-2-yl)-2-(4-(2-fluoroethyl)-2,3-dioxopiperazine-1-carboxamido)acetamido)-2-hydroxy-3,4-dihydro-2H-benzo[e][1,2]oxaborinine-8-carboxylic acid] | 32 to 64 µg/mL | 32 to 64 µg/mL | < 0.25 µg/mL | 2 to 4 µg/mL | 8 to 16 µg/mL | 2 to 4 µg/mL | < 0.125 µg/mL | 8 to 16 µg/mL | 1 to 2 µg/mL (≈ 1.73 to 3.45 µM) | 0.25 to 0.5 µg/mL (≈ 0.432 to 0.863 µM) | > 128 µg/mL | 0.25 to 0.5 µg/mL (≈ 0.432 to 0.863 µM) |
| CCN1CCN(C(=O)N[C@H](C(=O)N[C@H]2Cc3ccc(F)c(C(=O)O)c3OB2O)c2ccc(O)c(O)c2Cl)C(=O)C1=O [Example 188, (R)-3-((S)-2-(2-chloro-3,4-dihydroxyphenyl)-2-(4-ethyl-2,3-dioxopiperazine-1-carboxamido)acetamido)-7-fluoro-2-hydroxy-3,4-dihydro-2H-benzo[e][1,2]oxaborinine-8-carboxylic acid] | 32 to 64 µg/mL | 32 to 64 µg/mL | 2 to 4 µg/mL | 8 to 16 µg/mL | > 128 µg/mL | 8 to 16 µg/mL | 4 to 8 µg/mL (≈ 6.75 to 13.5 µM) | 8 to 16 µg/mL | 16 to 32 µg/mL (≈ 27 to 54 µM) | 4 to 8 µg/mL (≈ 6.75 to 13.5 µM) | 8 to 16 µg/mL | 16 to 32 µg/mL (≈ 27 to 54 µM) |
| CCN1CCN(C(=O)N[C@@H](C(=O)N[C@H]2Cc3ccc(F)c(C(=O)O)c3OB2O)c2ccc(O)c(O)c2Cl)C(=O)C1=O [Example 189, (R)-3-((R)-2-(2-chloro-3,4-dihydroxyphenyl)-2-(4-ethyl-2,3-dioxopiperazine-1-carboxamido)acetamido)-7-fluoro-2-hydroxy-3,4-dihydro-2H-benzo[e][1,2]oxaborinine-8-carboxylic acid] | 2 to 4 µg/mL | 0.5 to 1 µg/mL | 0.5 to 1 µg/mL | 0.5 to 1 µg/mL | 0.5 to 1 µg/mL | 0.5 to 1 µg/mL | 0.25 to 0.5 µg/mL (≈ 0.422 to 0.844 µM) | 2 to 4 µg/mL | 1 to 2 µg/mL (≈ 1.69 to 3.37 µM) | 0.25 to 0.5 µg/mL (≈ 0.422 to 0.844 µM) | 2 to 4 µg/mL | 1 to 2 µg/mL (≈ 1.69 to 3.37 µM) |
| CCN1CCN(C(=O)N[C@@H](C(=O)N[C@H]2Cc3cccc(C(=O)O)c3OB2O)c2ccc(O)c(O)c2Cl)C(=O)C1=O [Example 190, (R)-3-((R)-2-(2-chloro-3,4-dihydroxyphenyl)-2-(4-ethyl-2,3-dioxopiperazine-1-carboxamido)acetamido)-2-hydroxy-3,4-dihydro-2H-benzo[e][1,2]oxaborinine-8-carboxylic acid] | 2 to 4 µg/mL | 2 to 4 µg/mL | < 0.25 µg/mL | < 0.25 µg/mL | 0.5 to 1 µg/mL | 0.5 to 1 µg/mL | 0.25 to 0.5 µg/mL (≈ 0.435 to 0.87 µM) | 0.5 to 1 µg/mL | 4 to 8 µg/mL (≈ 6.96 to 13.9 µM) | 0.25 to 0.5 µg/mL (≈ 0.435 to 0.87 µM) | 0.5 to 1 µg/mL | 1 to 2 µg/mL (≈ 1.74 to 3.48 µM) |

Source: US12173018B2, “Penicillin-binding protein inhibitors” (priority 2018, dated 2024)
